Here are results for one molecule from patent US20040215284A1, “Treatment of neuromuscular dysfunction of the lower urinary tract with selective mGlu5 antagonists” (Recordati S.A., priority 2003, published 2004).

Some results are limits rather than exact numbers.

Test [1] addresses mGlu4a (Homo sapiens, UniProt Q14833). As to conditions: literature, functional models; cited from earlier work.
Test [2] deals with mGlu7 (Homo sapiens, UniProt Q14831). As to conditions: literature, functional models; cited from earlier work.
Test [3] addresses T1, mGlu5 (Rattus norvegicus, UniProt P31424). The conditions noted are these: rat forebrain.
Procedure: (§1) Male Sprague Dawley rats (200-300 g, Charles River, Italy) were killed by cervical dislocation and the forebrain (cortex, striatum and hippocampus) and cerebellum were homogenized (2×20 sec) in 50 vols of cold 50 mM Tris buffer pH 7.4, using a Politron homogenizer (Kinematica). […] The final pellets were frozen and stored at −80° C. until use.
(§2) ii) mGlu5: On experimental section pellets from rat forebrain were resuspended in 100 vols of 20 mM HEPES, 2 mM MgCl2, 2 mM CaCl2, pH 7.4.
(§3) The filters were then washed with cold buffer and the radioactivity retained on the filters was counted by liquid scintillation spectrometry.
(§4) Data were expressed as the mean of pKi(−log Ki)±SE.
The target in test [4] is mGlu5a (Homo sapiens, UniProt P41594). As to conditions: literature, functional models; cited from earlier work.
For test [5], the target named is Group II (mGlu2 + mGlu3) receptors. In words: Radioligand binding assay at Group II (mGlu2+mGlu3), [3H]LY341495, rat forebrain membranes. As to conditions: rat forebrain, [3H]LY341495.
Procedure: as §1
iii) Group II (mGlu2+mGlu3): On experimental section pellets from rat forebrain were resuspended in 250 vols of 20 mM HEPES, 2 mM MgCl2, 2 mM CaCl2, pH 7.4. The membranes were incubated in a final volume of 1 ml for 30 min at 0° C. with 1 nM [^3H]LY341495 in the absence or presence of competing drugs.
as §3, §4
The target of test [6] is mGlu6 (Homo sapiens, UniProt O15303). The conditions noted are these: literature, functional models; cited from earlier work.
Test [7] deals with mGlu1a (Homo sapiens, UniProt Q13255). As to conditions: literature, functional models; cited from earlier work.
The target in test [8] is T1, mGlu5. In words: biochemical.
Procedure: as §1, §2, §3, §4
For test [9], the system named is conscious rats. In words: Cystometric parameters in conscious rats (bladder infused with saline). In kind it is in vivo, rat. As to the method:
Male Sprague-Dawley rats [Crl: CD® (SD) IGS BR] of 300-400 g b.w. supplied by Charles River Italia were used. The animals were housed with free access to food and water and maintained on a forced 12-hour-light/12-hour-dark cycle at 22-24° C. of temperature, except during the experiment. To quantify urodynamic parameters in conscious rats, cystometrographic studies were performed according to the procedure previously reported (Guarneri et al., Pharmacol. Res. 24: 75, 1991).
Briefly, the rats were anaesthetized by intraperitoneal administration of 3 ml/kg of Equithensin solution (pentobarbital 30 mg/kg and chloral hydrate 125 mg/kg) and placed in a supine position. An approximately 10 mm long midline incision was made in the shaved and cleaned abdominal wall. The urinary bladder was gently freed from adhering tissues, emptied and then cannulated via an incision in the bladder body, using a polyethylene cannula (0.58 mm internal diameter, 0.96 mm external diameter) which was permanently sutured with silk thread. For intravenous bolus injection, a similar polyethylene tubing filled with physiological saline containing sodium heparin (40 I.U./ml) was inserted into the jugular vein. The cannulae were exteriorized through a subcutaneous tunnel in the retroscapular area, where they were connected to a plastic adapter in order to avoid the risk of removal by the animal. For drug testing, the rats were utilized one day after implantation.
On the day of the experiment, the rats were placed in modified Bollman cages, i.e., restraining cages that were large enough to permit the rats to adopt a normal crouched posture, but narrow enough to prevent turning around. After a stabilization period of about 20 minutes, the free tip of the bladder cannula was connected through a T-shaped tube to a pressure transducer (Statham P23XL) and to a peristaltic pump (Gilson minipuls 2) for continuous infusion of a warm (37° C.) saline solution into the urinary bladder, at a constant rate of 0.1 ml/minute. The intraluminal-pressure signal during infusion of saline into the bladder was continuously recorded on a polygraph (Rectigraph-8K San-ei with BM614/2 amplifier from Biomedica Mangoni) and, from the cystometrogram, two urodynamic parameters were evaluated: bladder volume capacity (BVC) and micturition pressure (MP). BVC (in ml) is defined as the volume of saline infused into the bladder necessary to induce detrusor contraction followed by micturition. MP (in mmHg) is defined as the maximal intravesical pressure caused by contraction during micturition. Basal BVC and MP values were evaluated as the mean of the values observed in the cystometrograms recorded in an initial period of 30-60 minutes. At this point in the assay, the infusion was interrupted and the test compounds were administered either intravenously by the jugular catheter or orally by a stomach tube. The bladder infusion restarted and changes in BVC and MP were evaluated from the mean values obtained in the cystometrograms observed during 1, 2, 3, 4, and 5 hours after treatment. The compounds were administered in a volume of 1 ml/kg and 2 ml/kg for intravenous and oral administration routes, respectively. Groups of control animals received the same amount of vehicle corresponding to a solution of 8% dimethylformamide and 8% Tween 80 in water (final concentrations) for intravenous, or a solution of 0.5% methocel in water for oral route.
Under the given test conditions, measurement of BVC is equivalent to measurement of interval time between micturitions.
All data were expressed as mean±standard error. The percent changes of BVC and MP relative to the basal values, as well as Δ values (difference in ml or in mmHg) of BVC and MP (BVC or MP at time “x” minus basal value), were also evaluated for each rat/time. In the figures, data were reported as percentage changes relative to basal values. […]

The target in test [10] is T2, mGlu1 (Rattus norvegicus, UniProt P23385).
T2 construct: pellets from rat cerebellum were resuspended; from tissue; host or cells: rat cerebellum membranes (male Sprague Dawley)
In words: Radioligand binding assay at mGlu1, [3H]quisqualic acid, rat cerebellum membranes. The conditions noted are these: [3H]quisqualic acid.
Procedure: as §1
i) mGlu1: On experimental section pellets from rat cerebellum were resuspended in 150-200 vols of 20 mM N-2-hydroxyethylpiperazine-N′-2-ethanesulfonic acid (HEPES), 2 mM MgCl2, 2 mM CaCl2, pH 7.4.
as §3, §4

Test [11] concerns the target mGlu2 (Homo sapiens, UniProt Q14416). The conditions noted are these: literature, functional models; cited from earlier work.
For test [12], the target named is mGlu8 (Homo sapiens, UniProt O00222). As to conditions: literature, functional models; cited from earlier work.
The subject of test [13] is rhythmic bladder-voiding contractions in anaesthetised rats. In words: Rhythmic bladder-voiding contractions induced by bladder filling in anaesthetised rats. The test is classed as in vivo, rat. As to conditions: for BLADDER CONTRACTIONS quiescence time: mean ± SEM. As to the method: The animals were housed with free access to food and water and maintained on a forced 12-hour alternating light-dark cycle at 22-24° C. for at least one week, except during the experiment. […] The catheter was tied in place with a ligature around the external urethral orifice and was connected to conventional pressure transducers (Statham P23 ID/P23 XL). […] The bladder was then filled via the recording catheter by incremental volumes of warm (37° C.) saline until reflex bladder-voiding contractions occurred (usually 0.8-1.5 ml). For intravenous injection of bioactive compounds, PE 50 polyethylene tubing filled with physiological saline was inserted into the jugular vein.
From the cystometrogram, the number of contractions recorded 15 minutes before (basal values) and after treatment, as well as the mean amplitude of these contractions (mean height of the peaks in mmHg), were evaluated.
Morphine was tested, too, as a reference standard for this model.

T1 sequence (P31424 21-1203): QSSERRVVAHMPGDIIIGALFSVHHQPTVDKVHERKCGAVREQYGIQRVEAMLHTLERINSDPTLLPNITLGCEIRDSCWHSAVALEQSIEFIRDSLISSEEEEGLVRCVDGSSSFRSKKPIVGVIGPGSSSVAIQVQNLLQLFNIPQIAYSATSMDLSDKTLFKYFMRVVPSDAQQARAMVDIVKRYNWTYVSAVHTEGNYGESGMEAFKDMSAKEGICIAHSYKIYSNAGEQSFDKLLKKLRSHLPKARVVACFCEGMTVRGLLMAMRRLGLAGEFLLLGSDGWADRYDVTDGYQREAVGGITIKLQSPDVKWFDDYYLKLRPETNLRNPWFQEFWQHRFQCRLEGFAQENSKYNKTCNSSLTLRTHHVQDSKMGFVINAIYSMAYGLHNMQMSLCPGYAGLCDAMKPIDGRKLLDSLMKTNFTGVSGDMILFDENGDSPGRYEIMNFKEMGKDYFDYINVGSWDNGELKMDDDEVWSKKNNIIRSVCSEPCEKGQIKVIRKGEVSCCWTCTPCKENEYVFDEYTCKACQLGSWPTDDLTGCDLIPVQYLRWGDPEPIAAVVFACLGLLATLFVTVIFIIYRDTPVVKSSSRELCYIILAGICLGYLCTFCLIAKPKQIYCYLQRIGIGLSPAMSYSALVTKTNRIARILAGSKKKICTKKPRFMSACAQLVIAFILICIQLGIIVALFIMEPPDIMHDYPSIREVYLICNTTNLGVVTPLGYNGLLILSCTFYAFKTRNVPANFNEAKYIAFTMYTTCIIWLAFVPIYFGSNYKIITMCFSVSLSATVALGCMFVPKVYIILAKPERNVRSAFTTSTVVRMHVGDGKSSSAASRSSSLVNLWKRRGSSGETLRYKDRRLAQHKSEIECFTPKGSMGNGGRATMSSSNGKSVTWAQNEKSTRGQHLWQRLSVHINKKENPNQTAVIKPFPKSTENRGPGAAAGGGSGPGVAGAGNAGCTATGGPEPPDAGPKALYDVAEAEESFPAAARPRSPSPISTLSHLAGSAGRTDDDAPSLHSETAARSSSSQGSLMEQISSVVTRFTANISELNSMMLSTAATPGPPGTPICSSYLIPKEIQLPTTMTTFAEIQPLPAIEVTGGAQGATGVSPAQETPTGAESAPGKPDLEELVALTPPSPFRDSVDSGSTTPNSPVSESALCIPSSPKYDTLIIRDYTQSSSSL
Chain of mGlu7 (Q14831 35-915): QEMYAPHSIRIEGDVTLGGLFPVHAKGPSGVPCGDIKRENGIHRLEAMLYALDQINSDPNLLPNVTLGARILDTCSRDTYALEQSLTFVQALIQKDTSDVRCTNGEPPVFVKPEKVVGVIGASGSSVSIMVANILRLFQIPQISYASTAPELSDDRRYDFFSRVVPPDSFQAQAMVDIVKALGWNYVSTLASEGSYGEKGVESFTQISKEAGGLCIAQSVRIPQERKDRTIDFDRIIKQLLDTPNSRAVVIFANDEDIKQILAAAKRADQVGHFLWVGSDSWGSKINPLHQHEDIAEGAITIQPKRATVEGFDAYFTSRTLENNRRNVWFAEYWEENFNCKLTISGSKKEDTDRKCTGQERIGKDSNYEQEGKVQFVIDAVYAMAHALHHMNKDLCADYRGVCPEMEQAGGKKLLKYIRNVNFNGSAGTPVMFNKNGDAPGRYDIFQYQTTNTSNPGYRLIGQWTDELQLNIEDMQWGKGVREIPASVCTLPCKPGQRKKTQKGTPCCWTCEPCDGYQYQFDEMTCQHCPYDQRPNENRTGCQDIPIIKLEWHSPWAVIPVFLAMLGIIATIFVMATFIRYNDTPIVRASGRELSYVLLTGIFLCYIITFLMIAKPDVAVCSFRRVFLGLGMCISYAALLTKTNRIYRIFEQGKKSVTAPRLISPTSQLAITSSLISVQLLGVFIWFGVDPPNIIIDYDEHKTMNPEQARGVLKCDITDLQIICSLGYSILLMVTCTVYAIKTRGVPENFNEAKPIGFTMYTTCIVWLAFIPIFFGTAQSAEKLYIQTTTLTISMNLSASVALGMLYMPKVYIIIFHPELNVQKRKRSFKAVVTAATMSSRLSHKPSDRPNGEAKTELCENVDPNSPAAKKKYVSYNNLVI
Chain of mGlu6 (O15303 25-877): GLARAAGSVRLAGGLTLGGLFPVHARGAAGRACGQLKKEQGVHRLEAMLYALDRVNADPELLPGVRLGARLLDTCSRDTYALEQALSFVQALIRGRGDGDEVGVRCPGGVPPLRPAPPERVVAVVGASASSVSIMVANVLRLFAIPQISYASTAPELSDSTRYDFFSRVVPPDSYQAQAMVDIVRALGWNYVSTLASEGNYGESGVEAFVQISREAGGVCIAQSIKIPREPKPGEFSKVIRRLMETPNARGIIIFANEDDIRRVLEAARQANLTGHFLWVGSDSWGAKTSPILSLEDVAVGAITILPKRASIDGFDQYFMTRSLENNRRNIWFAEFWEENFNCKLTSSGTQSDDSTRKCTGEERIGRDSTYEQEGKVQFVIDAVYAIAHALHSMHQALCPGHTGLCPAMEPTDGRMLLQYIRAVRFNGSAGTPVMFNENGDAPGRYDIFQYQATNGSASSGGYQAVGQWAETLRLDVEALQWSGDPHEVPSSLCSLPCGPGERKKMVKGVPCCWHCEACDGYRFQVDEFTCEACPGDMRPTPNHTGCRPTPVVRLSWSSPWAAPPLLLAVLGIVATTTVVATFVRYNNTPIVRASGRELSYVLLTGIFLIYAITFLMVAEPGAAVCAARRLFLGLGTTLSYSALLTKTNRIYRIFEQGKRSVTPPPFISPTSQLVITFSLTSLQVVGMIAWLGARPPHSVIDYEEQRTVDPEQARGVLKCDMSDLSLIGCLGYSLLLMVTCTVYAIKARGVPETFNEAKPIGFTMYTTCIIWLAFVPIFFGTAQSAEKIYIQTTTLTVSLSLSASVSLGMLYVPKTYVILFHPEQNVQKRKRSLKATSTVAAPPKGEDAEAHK
Chain of mGlu2 (Q14416 19-872): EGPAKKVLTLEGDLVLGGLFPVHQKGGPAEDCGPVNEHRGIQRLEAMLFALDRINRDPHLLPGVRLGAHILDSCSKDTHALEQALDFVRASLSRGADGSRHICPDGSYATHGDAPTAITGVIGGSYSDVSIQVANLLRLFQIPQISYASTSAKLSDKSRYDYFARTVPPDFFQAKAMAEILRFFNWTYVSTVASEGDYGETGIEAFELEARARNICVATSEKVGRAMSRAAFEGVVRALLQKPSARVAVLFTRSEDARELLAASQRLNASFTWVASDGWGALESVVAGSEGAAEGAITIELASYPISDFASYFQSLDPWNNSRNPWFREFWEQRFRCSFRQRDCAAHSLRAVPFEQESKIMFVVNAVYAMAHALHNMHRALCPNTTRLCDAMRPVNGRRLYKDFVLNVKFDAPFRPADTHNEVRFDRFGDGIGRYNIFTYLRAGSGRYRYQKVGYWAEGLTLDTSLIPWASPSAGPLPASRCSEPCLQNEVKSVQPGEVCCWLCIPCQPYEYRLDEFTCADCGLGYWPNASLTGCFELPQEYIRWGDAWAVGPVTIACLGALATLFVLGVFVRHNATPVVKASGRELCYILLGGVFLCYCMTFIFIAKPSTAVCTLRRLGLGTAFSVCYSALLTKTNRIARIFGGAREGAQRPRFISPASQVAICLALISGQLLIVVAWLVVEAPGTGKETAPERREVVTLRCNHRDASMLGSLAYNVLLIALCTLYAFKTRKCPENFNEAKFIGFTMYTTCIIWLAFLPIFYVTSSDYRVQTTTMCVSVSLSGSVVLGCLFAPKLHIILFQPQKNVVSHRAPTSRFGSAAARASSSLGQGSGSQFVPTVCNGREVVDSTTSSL
Chain of mGlu4a (Q14833 33-912): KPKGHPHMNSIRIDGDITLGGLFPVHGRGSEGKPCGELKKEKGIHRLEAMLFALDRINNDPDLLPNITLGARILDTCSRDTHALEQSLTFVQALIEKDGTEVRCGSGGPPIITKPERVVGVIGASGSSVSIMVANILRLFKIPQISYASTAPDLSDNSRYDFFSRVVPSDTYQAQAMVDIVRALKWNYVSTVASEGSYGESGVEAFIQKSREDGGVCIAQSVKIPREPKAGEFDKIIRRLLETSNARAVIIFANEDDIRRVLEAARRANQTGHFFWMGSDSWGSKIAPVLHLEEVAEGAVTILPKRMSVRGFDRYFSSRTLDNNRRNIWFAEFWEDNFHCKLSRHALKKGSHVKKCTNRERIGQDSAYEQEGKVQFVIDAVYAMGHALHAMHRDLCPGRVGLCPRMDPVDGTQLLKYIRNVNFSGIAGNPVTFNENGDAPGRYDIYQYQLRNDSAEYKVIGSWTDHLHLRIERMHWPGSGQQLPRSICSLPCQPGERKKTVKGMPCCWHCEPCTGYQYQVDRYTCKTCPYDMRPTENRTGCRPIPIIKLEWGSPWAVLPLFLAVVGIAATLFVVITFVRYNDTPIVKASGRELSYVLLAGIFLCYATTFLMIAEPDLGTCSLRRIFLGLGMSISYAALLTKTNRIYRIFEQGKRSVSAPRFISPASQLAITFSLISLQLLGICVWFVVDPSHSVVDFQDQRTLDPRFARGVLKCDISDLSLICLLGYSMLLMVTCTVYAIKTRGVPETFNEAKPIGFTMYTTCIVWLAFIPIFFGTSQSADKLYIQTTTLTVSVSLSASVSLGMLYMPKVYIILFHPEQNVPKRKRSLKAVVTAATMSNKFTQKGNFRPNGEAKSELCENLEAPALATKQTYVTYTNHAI

Consider `Cc1cccc(C=Cc2ccccc2)n1` [SIB 1893, 2-methyl-6-(2-phenylethenyl)pyridine], for which the IC50 (usually the concentration that gives 50% inhibition) was greater than 30 µM in test [1]; greater than 30 µM in test [2]; 0.3 µM in test [4]; greater than 30 µM in test [6]; greater than 30 µM in test [7]; greater than 30 µM in test [11]. For the same molecule, in [12], the half-maximal inhibitory concentration (IC50) is greater than 30 µM. Besides, the “inhibition of the specific binding of [3H]MPEP to mGlu5 receptor (in words)” value in [3] was “weaker affinity”. Further, the results for the Ki in [5], in test [8] and in [10] were greater than 10 µM, 0.859 µM and greater than 10 µM, respectively. Also, the “bladder volume capacity (BVC)” value in test [9] (50 mg/kg i.v., FIG. 1) is reported as “significantly increased the BVC only in comparison with the basal values”. Besides, the “micturition pressure (MP)” value in test [9] (i.v., MPEP 3 and 10 mg/kg, SIB 1893 50 mg/kg, FIG. 2) was “only mild effects on the micturition pressure”. Moreover, the results for the “BLADDER CONTRACTIONS quiescence time” value in test [13] (1000 μg/kg i.v.), in test [13] (2000 μg/kg i.v.) and in test [13] (3000 μg/kg i.v.) were 4.44 ± 1.05 min, 8.00 ± 0.78 min and 15.57 ± 1.34 min, respectively. In addition, the “activity as inhibitors of isovolumic voiding contractions (in words)” value in [13] (i.v., anaesthetised rats) is “active”. In test [13] (i.v., anaesthetised rats), the “amplitude of contractions when contractions resumed, relative to before treatment (in words)” value was “no difference in the amplitude”. In [13] (i.v., linear regression), the “ED10min (extrapolated dose inducing 10 min of bladder quiescence)” value was 1.928 mg/kg.
